Data reported in US4328202A, “Ionic 5-C-substituted 2,4,6-triiodoisophthalic acid derivatives” (Schering, A.G., priority 1980, dated 1982).

Legend:
Rat [1] = assay: Neural compatibility after intracerebral injection in rats (24 h observation; ED50 = toxic effects in 50% of the animals); type: in vivo; conditions: intracerebrally, meglumine salt in water, probit analysis
Method: (§1) Table I presents a comparison of the conventional contrast media iothalamic acid (E) and diatrizoic acid (F) with 5-Carbamoyl-3-N-methylcarbamoyl-2,4,6-triiodobenzoic acid (D) of this invention, in terms of neural compatibility after intracerebral or intracisternal administration, as well as their general compatibility.
(§2) The compounds are administered, as meglumine salts dissolved in water, to 10 rats each in varying doses. After intracerebral and intracisternal injection, the animals are observed for 24 hours; the ED50 is denoted as the dose causing toxic effects (strong behavioral anomalies and disturbances in motor coordination, convulsions, or death) in 50% of the animals. After intravenous injection, the observation time was 7 days. ED50 and LD50 were calculated by probit analysis.

Rat [2] = assay: General compatibility after intravenous injection in rats (7 days observation); type: in vivo; conditions: intravenously, meglumine salt in water, probit analysis
Method: as §1, §2

Iodine content of acid = type: physicochemical; conditions: of the free acid
Rat [3] = assay: Neural compatibility after intracisternal injection in rats (24 h observation; ED50 = toxic effects in 50% of the animals); type: in vivo; conditions: intracisternally, meglumine salt in water, probit analysis
Method: as §1, §2

Row | SMILES | ED50 (strong behavioral anomalies, disturbances in motor coordination, convulsions, or death) (Rat [1]) [mg I/kg] | LD50 (Rat [1]) [mg I/kg] | LD50 (Rat [2]) [g I/kg] | Iodine content of acid (Iodine content of acid) [%] | ED50 (strong behavioral anomalies, disturbances in motor coordination, convulsions, or death) (Rat [3]) [mg I/kg] | LD50 (Rat [3]) [mg I/kg]
1 | CNC(=O)c1c(I)c(C(N)=O)c(I)c(C(=O)O)c1I [D, 5-Carbamoyl-3-N-methylcarbamoyl-2,4,6-triiodobenzoic acid] | 42 | 66 | 8.7 | 63.5 | 13.2 | 65
2 | CNC(=O)c1c(I)c(NC(C)=O)c(I)c(C(=O)O)c1I [E, iothalamic acid] | 36 | 52 | 7.4 | 62.1 | 10.6 | 58
3 | CC(=O)Nc1c(I)c(NC(C)=O)c(I)c(C(=O)O)c1I [F, diatrizoic acid] | 12 | – | 7.3 | 62.1 | 3.0 | –
